The structures appear in SMILES notation. Entries after “also recorded” stand apart in the source; their conditions may differ. Non-standard residues stand in square brackets, D forms with d. Residues, ends and D or L forms follow the SMILES beside them.

In this data set the test system is human peripheral blood mononuclear cells (Lymphocyte, PBMC). As to the kind of experiment: cell vitality FACS analysis (region R-1), healthy lymphocytes (PBMC). In kind it is cell-based. Particulars: Protocol A, 50, 100, 200 μM, about 24 hours per Examples (FIG. 11 legend: about 2 hours). As for the experimental part:
Human lymphocytes are obtained as peripheral blood mononuclear cells (“PBMC”) from whole blood. For this purpose, 15 ml of heparinized whole blood (heparin tube, Sarstedt) were layered on 15 ml Biocoll in LeucoSep tubes and obtained by centrifugation (10 min at 120 g) as the top layer (“lymphocytes”) and so separated from other cells. For induction with peptides, 1×10^6 lymphocytes are seeded into each well of the 48-well plates.
After addition of the peptides diluted in culture medium to the cells (MEC-1 or lymphocytes) in the respective cavity, the cells are cultured for 2 to 4 hours at 37 degrees Celsius and 5% CO2. The cell suspension is centrifuged in centrifuge tubes at 120 g, the cells are suspended in 500 μl serum-free culture medium, then 1.5 ml of cold 80% ethanol (ethanol/PBS-80/20, v/v; stored at −20 degrees Celsius) is added, the FACS tubes sealed and stored at −20 degrees Celsius for a maximum of 18 h. The cells are centrifuged for 5 min at 120 g and suspended in 2 ml PBS, then incubated for 30 min at 37 degrees Celsius. After renewed centrifugation, the cells are suspended in 0.5 ml DAPI solution and incubated for 15 min at 20 degrees Celsius in the dark. Thereafter, the cells are stored dark for a maximum of four hours in an ice bath, then the FACS analysis.
To transfer adherent cells (A375 and BxPC-3 cells) after culture, cells are washed twice with PBS. To detach the cells, the enzyme biotase is used according to the manufacturer's instructions. For this purpose, after washing with PBS, the cells are mixed with biotase (5 ml of biotase solution per 75 cm^2 surface of the cell culture bottles) and incubated for 5 min at 37 degrees Celsius, and the biotase is separated by centrifugation. Cells cultivated in suspension (MEC-1 and lymphocytes) were transferred by dilution. The cells are suspended in culture medium and counted, each time 1.5×10^5 cells/cm^2 are seeded in 48-well plates and cultured for between 1.5 and 24 hours at 37 degrees Celsius, 5% CO2. Peptides are pre-diluted from stock solution with culture medium and 200 μl of peptide solution added so that final concentrations of 30 to 500 μM peptide are present in at most 1% (v/v) DMSO. As control solutions, culture medium without peptide (DMSO-containing) in culture medium or etoposide solution is added. After incubating the cells for several hours, the cell supernatant is transferred to a FACS tube for each batch and, after washing the cells with PBS, the wash solution is added. Then the cells are incubated with 200 μl of biotase solution for 10 min, 37° C., the cells with the biotase are also transferred to the FACS tube and the cells are collected by centrifugation for 5 min. The cell pellet is suspended in 500 μl of serum-free culture medium, then 1.5 ml of cold 80% ethanol (ethanol/PBS-80/20, v/v, stored at −20° C.) is added, the FACS tubes sealed and stored at −20 degrees Celsius for 15 to 18 h. Thereafter, the cells are centrifuged for 5 minutes at 120 g, suspended after removal of the supernatant in 2 ml PBS and incubated at 37 degrees Celsius for 30 minutes. After re-centrifugation, the cells are suspended in 0.5 ml DAPI solution and incubated for 15 min at 20 degrees Celsius in the dark. Thereafter, the cells are stored dark for a maximum of four hours in an ice bath, followed by the FACS analysis.
Changes of the cell form during cell death by apoptosis are documented in the literature (Lizard et al. 1995; Taga et al. 2000; Vermes et al., 2000). The protocols for cell cultivation, treatment and preparation of the cells before flow cytometry is detailed in separate examples. Cell suspensions of cell lines A375, BxPC-3, MEC-1 or of primary lymphocytes (see separate example of lymphocyte preparation) are analyzed by flow cytometry. The data are further analyzed by using the program “Flowing Software 2”. The data of light scattering are drawn in a two-dimensional FSC/SSC plot. […]
A general note: Flow cytometry measures light scatter and fluorescence of single cells or particles in a stream.

On to `CSCC[C@@H](NC(=O)[C@@H](Cc1c[nH]c2ccccc12)NC(=O)[C@@H](CCCCN)NC(=O)[C@H](N)CCCCN)C(=O)N[C@@H](C(=O)N[C@@H](C(=O)N[C@H](Cc1ccc(O)cc1)C(=O)N[C@H](Cc1ccccc1)C(=O)N[C@H](CCCNC(=N)N)C(=O)N[C@H](CCCCN)C(=O)N[C@H](CCC(=O)O)C(=O)N[C@H](C)C(=O)N[C@H](CCCNC(=N)N)C(=O)O)C(C)C)C(C)C` [SEQID No 32, k-k-w-m-v-v-y-f-r-k-e-a-r] (H-[dK][dK][dW][dM][dV][dV][dY][dF][dR][dK][dE][dA][dR]-OH; N-terminus and C-terminus assumed), for which the “tolerance by healthy Lymphocyte (PBMC) cells (cell vitality)” value (shortened to “tolerance by healthy Lymphocyte”) is “not remarkably damaged”.
Consider `CSCC[C@@H](NC(=O)[C@@H](Cc1c[nH]c2ccccc12)NC(=O)[C@@H](CCCCN)NC(=O)[C@@H](CCCCN)NC(=O)[C@@H](CO)NC(=O)[C@@H](CCCNC(=N)N)NC(=O)[C@H](N)CCC(=O)O)C(=O)N[C@@H](C(=O)N[C@@H](C(=O)N[C@H](Cc1ccc(O)cc1)C(=O)N[C@H](Cc1ccccc1)C(=O)N[C@H](CCCNC(=N)N)C(=O)N[C@H](CCCCN)C(=O)O)C(C)C)C(C)C` [SEQID No 31, e-r-s-k-k-w-m-v-v-y-f-r-k] (H-[dE][dR][dS][dK][dK][dW][dM][dV][dV][dY][dF][dR][dK]-OH; N-terminus and C-terminus assumed), for which the “tolerance by healthy Lymphocyte” value is listed as “not remarkably damaged”.
Turning to `CSCC[C@@H](NC(=O)[C@@H](Cc1c[nH]c2ccccc12)NC(=O)[C@H](N)CCCCN)C(=O)N[C@@H](C(=O)N[C@@H](C(=O)N[C@H](Cc1ccc(O)cc1)C(=O)N[C@H](Cc1ccccc1)C(=O)N[C@H](CCCNC(=N)N)C(=O)N[C@H](CCCCN)C(=O)O)C(C)C)C(C)C` [SEQID No 26, k-w-m-v-v-y-f-r-k] (H-[dK][dW][dM][dV][dV][dY][dF][dR][dK]-OH; N-terminus and C-terminus assumed), the “tolerance by healthy Lymphocyte” value was “not so well tolerated by the healthy cells”.
With `CSCC[C@@H](NC(=O)[C@@H](Cc1c[nH]c2ccccc12)NC(=O)[C@@H](CCCCN)NC(=O)[C@H](N)CCCCN)C(=O)N[C@@H](C(=O)N[C@@H](C(=O)N[C@H](Cc1ccc(O)cc1)C(=O)N[C@H](Cc1ccccc1)C(=O)N[C@H](CCCNC(=N)N)C(=O)O)C(C)C)C(C)C` [SEQID No 25, k-k-w-m-v-v-y-f-r] (H-[dK][dK][dW][dM][dV][dV][dY][dF][dR]-OH; N-terminus and C-terminus assumed), the “tolerance by healthy Lymphocyte” value is recorded as “not so well tolerated by the healthy cells”.
`CSCC[C@@H](NC(=O)[C@@H](Cc1c[nH]c2ccccc12)NC(=O)[C@@H](CCCCN)NC(=O)[C@H](N)CCCCN)C(=O)N[C@@H](C(=O)N[C@@H](C(=O)N[C@H](Cc1ccc(O)cc1)C(=O)N[C@H](Cc1ccccc1)C(=O)N[C@H](CCCNC(=N)N)C(=O)N[C@H](CCCCN)C(=O)O)C(C)C)C(C)C` [SEQID No 27, k-k-w-m-v-v-y-f-r-k] (H-[dK][dK][dW][dM][dV][dV][dY][dF][dR][dK]-OH; N-terminus and C-terminus assumed): the “tolerance by healthy Lymphocyte” value is reported as “not remarkably damaged; also recorded: very good tolerated by the healthy cells (low toxic effect)”.
Turning to `CSCC[C@@H](NC(=O)[C@@H](Cc1c[nH]c2ccccc12)NC(=O)[C@@H](CCCCN)NC(=O)[C@H](N)CCCCN)C(=O)N[C@@H](C(=O)N[C@@H](C(=O)N[C@H](Cc1ccc(O)cc1)C(=O)N[C@H](Cc1ccccc1)C(=O)N[C@H](CCCNC(=N)N)C(=O)N[C@H](CCCCN)C(=O)N[C@H](CO)C(=O)N[C@H](CO)C(=O)N[C@H](CCCNC(=N)N)C(=O)O)C(C)C)C(C)C` [SEQID No 30, k-k-w-m-v-v-y-f-r-k-s-s-r] (H-[dK][dK][dW][dM][dV][dV][dY][dF][dR][dK][dS][dS][dR]-OH; N-terminus and C-terminus assumed), the “tolerance by healthy Lymphocyte” value was “well tolerated”. Further, the “tolerance by healthy Lymphocyte” value (listed as SEQID NO 30) is listed as “not remarkably damaged”.
